Measurements taken from patent US9113629B2, “4-amino-6-(4-substituted-phenyl)-picolinates and 6-amino-2-(4-substituted-phenyl)-pyrimidine-4-carboxylates and their use as herbicides” (DOW AGROSCIENCES LLC, priority 2013, dated 2015).

system: HORSS: barley, including spring and winter (Hordeum vulgare); experiment: Post-emergent Test III, herbicidal activity in wheat and barley; type: in vivo; details: Hordeum vulgare, post-emergence, 504 h; 35 g ai/ha; 21 days after application; read-out: Visual Gorowth Reduction (%) 21 days After Application HORSS
Procedure, shortened: (§1)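 Plants at the second to third true-leaf stage, grown in a greenhouse at about 18/17 °C with a 14 h photoperiod, were sprayed post-emergence at 187 L/ha with the high rate and ½× to 1/16× serial dilutions in an acetone/DMSO/crop-oil/surfactant carrier. Injury was rated visually at 21 d on a 0–100% scale, and GR20–GR90 were derived by probit analysis.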

SMILES	pest or weed control at 35 g/ha [%]
COc1c(N)nc(-c2ccc(I)c(F)c2F)nc1C(=O)O [Compound 89]	60 to 74
COC(=O)c1nc(-c2ccc(I)c(F)c2F)c(F)c(N)c1Cl [Compound 99]	85 to 94

same assay, conditions: Hordeum vulgare, post-emergence, 504 h; 70 g ai/ha; 21 days after application; read-out: Visual Gorowth Reduction (%) 21 days After Application HORSS

SMILES	pest or weed control at 70 g/ha [%]
COc1c(N)nc(-c2ccc(I)c(F)c2F)nc1C(=O)O [Compound 89]	60 to 74
COC(=O)c1nc(-c2ccc(I)c(F)c2F)c(F)c(N)c1Cl [Compound 99]	95 to 100

same assay, conditions: probit analysis; dose for 20 percent growth reduction (crop); 21 days after application

SMILES	GR20 HORSS [g ai/ha]
COc1c(N)nc(-c2ccc(I)c(F)c2F)nc1C(=O)O [Compound 89]	3
COC(=O)c1nc(-c2ccc(I)c(F)c2F)c(F)c(N)c1Cl [Compound 99]	1

system: KCHSC: kochia (Kochia scoparia); experiment: as above; type: in vivo; details: Bassia scoparia, post-emergence, 504 h; 35 g ai/ha; 21 days after application; read-out: Visual Gorowth Reduction (%) 21 days After Application KCHSC
Procedure, shortened: as §1

SMILES	pest or weed control at 35 g/ha [%]
COc1c(N)nc(-c2ccc(I)c(F)c2F)nc1C(=O)O [Compound 89]	85 to 94
COC(=O)c1nc(-c2ccc(I)c(F)c2F)c(F)c(N)c1Cl [Compound 99]	75 to 84

same assay, conditions: Bassia scoparia, post-emergence, 504 h; 70 g ai/ha; 21 days after application; read-out: Visual Gorowth Reduction (%) 21 days After Application KCHSC

SMILES	pest or weed control at 70 g/ha [%]
COc1c(N)nc(-c2ccc(I)c(F)c2F)nc1C(=O)O [Compound 89]	85 to 94
COC(=O)c1nc(-c2ccc(I)c(F)c2F)c(F)c(N)c1Cl [Compound 99]	85 to 94

same assay, conditions: probit analysis; dose for 50 percent growth reduction; 21 days after application

SMILES	GR50 KCHSC [g ai/ha]
COc1c(N)nc(-c2ccc(I)c(F)c2F)nc1C(=O)O [Compound 89]	12
COC(=O)c1nc(-c2ccc(I)c(F)c2F)c(F)c(N)c1Cl [Compound 99]	9

same assay, conditions: probit analysis; dose for 80 percent growth reduction; 21 days after application

SMILES	GR80 KCHSC [g ai/ha]
COc1c(N)nc(-c2ccc(I)c(F)c2F)nc1C(=O)O [Compound 89]	25
COC(=O)c1nc(-c2ccc(I)c(F)c2F)c(F)c(N)c1Cl [Compound 99]	27

system: MATSS: scented mayweed (Matricaria chamomilla), pineappleweed (Matricaria matricarioides); experiment: as above; type: in vivo; details: Matricaria chamomilla, post-emergence, 504 h; 35 g ai/ha; 21 days after application; read-out: Visual Gorowth Reduction (%) 21 days After Application MATSS
Procedure, shortened: as §1

SMILES	pest or weed control at 35 g/ha [%]
COc1c(N)nc(-c2ccc(I)c(F)c2F)nc1C(=O)O [Compound 89]	75 to 84
COC(=O)c1nc(-c2ccc(I)c(F)c2F)c(F)c(N)c1Cl [Compound 99]	30 to 44

same assay, conditions: Matricaria chamomilla, post-emergence, 504 h; 70 g ai/ha; 21 days after application; read-out: Visual Gorowth Reduction (%) 21 days After Application MATSS

SMILES	pest or weed control at 70 g/ha [%]
COc1c(N)nc(-c2ccc(I)c(F)c2F)nc1C(=O)O [Compound 89]	85 to 94
COC(=O)c1nc(-c2ccc(I)c(F)c2F)c(F)c(N)c1Cl [Compound 99]	45 to 59

same assay, conditions: probit analysis; dose for 50 percent growth reduction; 21 days after application

SMILES	GR50 MATSS [g ai/ha]
COc1c(N)nc(-c2ccc(I)c(F)c2F)nc1C(=O)O [Compound 89]	14
COC(=O)c1nc(-c2ccc(I)c(F)c2F)c(F)c(N)c1Cl [Compound 99]	63

same assay, conditions: probit analysis; dose for 80 percent growth reduction; 21 days after application

SMILES	GR80 MATSS [g ai/ha]
COc1c(N)nc(-c2ccc(I)c(F)c2F)nc1C(=O)O [Compound 89]	36
COC(=O)c1nc(-c2ccc(I)c(F)c2F)c(F)c(N)c1Cl [Compound 99]	>140

system: SASKR: Russian thistle (Salsola iberica); experiment: as above; type: in vivo; details: Salsola tragus, post-emergence, 504 h; 35 g ai/ha; 21 days after application; read-out: Visual Gorowth Reduction (%) 21 days After Application SASKR
Procedure, shortened: as §1

SMILES	pest or weed control at 35 g/ha [%]
COc1c(N)nc(-c2ccc(I)c(F)c2F)nc1C(=O)O [Compound 89]	85 to 94
COC(=O)c1nc(-c2ccc(I)c(F)c2F)c(F)c(N)c1Cl [Compound 99]	75 to 84

same assay, conditions: Salsola tragus, post-emergence, 504 h; 70 g ai/ha; 21 days after application; read-out: Visual Gorowth Reduction (%) 21 days After Application SASKR

SMILES	pest or weed control at 70 g/ha [%]
COc1c(N)nc(-c2ccc(I)c(F)c2F)nc1C(=O)O [Compound 89]	85 to 94
COC(=O)c1nc(-c2ccc(I)c(F)c2F)c(F)c(N)c1Cl [Compound 99]	75 to 84

same assay, conditions: probit analysis; dose for 50 percent growth reduction; 21 days after application

SMILES	GR50 SASKR [g ai/ha]
COc1c(N)nc(-c2ccc(I)c(F)c2F)nc1C(=O)O [Compound 89]	9
COC(=O)c1nc(-c2ccc(I)c(F)c2F)c(F)c(N)c1Cl [Compound 99]	10

same assay, conditions: probit analysis; dose for 80 percent growth reduction; 21 days after application

SMILES	GR80 SASKR [g ai/ha]
COc1c(N)nc(-c2ccc(I)c(F)c2F)nc1C(=O)O [Compound 89]	21
COC(=O)c1nc(-c2ccc(I)c(F)c2F)c(F)c(N)c1Cl [Compound 99]	48

system: TRZSS: wheat, including spring and winter (Triticum aestivum); experiment: as above; type: in vivo; details: Triticum aestivum, post-emergence, 504 h; 35 g ai/ha; 21 days after application; read-out: Visual Gorowth Reduction (%) 21 days After Application TRZSS
Procedure, shortened: as §1

SMILES	pest or weed control at 35 g/ha [%]
COc1c(N)nc(-c2ccc(I)c(F)c2F)nc1C(=O)O [Compound 89]	75 to 84
COC(=O)c1nc(-c2ccc(I)c(F)c2F)c(F)c(N)c1Cl [Compound 99]	85 to 94

same assay, conditions: Triticum aestivum, post-emergence, 504 h; 70 g ai/ha; 21 days after application; read-out: Visual Gorowth Reduction (%) 21 days After Application TRZSS

SMILES	pest or weed control at 70 g/ha [%]
COc1c(N)nc(-c2ccc(I)c(F)c2F)nc1C(=O)O [Compound 89]	85 to 94
COC(=O)c1nc(-c2ccc(I)c(F)c2F)c(F)c(N)c1Cl [Compound 99]	85 to 94

same assay, conditions: probit analysis; dose for 20 percent growth reduction (crop); 21 days after application

SMILES	GR20 TRZSS [g ai/ha]
COc1c(N)nc(-c2ccc(I)c(F)c2F)nc1C(=O)O [Compound 89]	1
COC(=O)c1nc(-c2ccc(I)c(F)c2F)c(F)c(N)c1Cl [Compound 99]	1

system: VERPE: bird's-eye speedwell (veronica persica); experiment: as above; type: in vivo; details: Veronica persica, post-emergence, 504 h; 35 g ai/ha; 21 days after application; read-out: Visual Gorowth Reduction (%) 21 days After Application VERPE
Procedure, shortened: as §1

SMILES	pest or weed control at 35 g/ha [%]
COc1c(N)nc(-c2ccc(I)c(F)c2F)nc1C(=O)O [Compound 89]	95 to 100
COC(=O)c1nc(-c2ccc(I)c(F)c2F)c(F)c(N)c1Cl [Compound 99]	95 to 100

same assay, conditions: Veronica persica, post-emergence, 504 h; 70 g ai/ha; 21 days after application; read-out: Visual Gorowth Reduction (%) 21 days After Application VERPE

SMILES	pest or weed control at 70 g/ha [%]
COc1c(N)nc(-c2ccc(I)c(F)c2F)nc1C(=O)O [Compound 89]	95 to 100
COC(=O)c1nc(-c2ccc(I)c(F)c2F)c(F)c(N)c1Cl [Compound 99]	95 to 100

same assay, conditions: probit analysis; dose for 50 percent growth reduction; 21 days after application

SMILES	GR50 VERPE [g ai/ha]
COc1c(N)nc(-c2ccc(I)c(F)c2F)nc1C(=O)O [Compound 89]	3
COC(=O)c1nc(-c2ccc(I)c(F)c2F)c(F)c(N)c1Cl [Compound 99]	8

same assay, conditions: probit analysis; dose for 80 percent growth reduction; 21 days after application

SMILES	GR80 VERPE [g ai/ha]
COc1c(N)nc(-c2ccc(I)c(F)c2F)nc1C(=O)O [Compound 89]	6
COC(=O)c1nc(-c2ccc(I)c(F)c2F)c(F)c(N)c1Cl [Compound 99]	17

system: VIOSS: wild pansy (Viola tricolor), field violet (Viola arvensis); experiment: as above; type: in vivo; details: Viola tricolor, post-emergence, 504 h; 35 g ai/ha; 21 days after application; read-out: Visual Gorowth Reduction (%) 21 days After Application VIOSS
Procedure, shortened: as §1

SMILES	pest or weed control at 35 g/ha [%]
COc1c(N)nc(-c2ccc(I)c(F)c2F)nc1C(=O)O [Compound 89]	95 to 100
COC(=O)c1nc(-c2ccc(I)c(F)c2F)c(F)c(N)c1Cl [Compound 99]	95 to 100

same assay, conditions: Viola tricolor, post-emergence, 504 h; 70 g ai/ha; 21 days after application; read-out: Visual Gorowth Reduction (%) 21 days After Application VIOSS

SMILES	pest or weed control at 70 g/ha [%]
COc1c(N)nc(-c2ccc(I)c(F)c2F)nc1C(=O)O [Compound 89]	95 to 100
COC(=O)c1nc(-c2ccc(I)c(F)c2F)c(F)c(N)c1Cl [Compound 99]	95 to 100

same assay, conditions: probit analysis; dose for 50 percent growth reduction; 21 days after application

SMILES	GR50 VIOSS [g ai/ha]
COc1c(N)nc(-c2ccc(I)c(F)c2F)nc1C(=O)O [Compound 89]	11
COC(=O)c1nc(-c2ccc(I)c(F)c2F)c(F)c(N)c1Cl [Compound 99]	9

same assay, conditions: probit analysis; dose for 80 percent growth reduction; 21 days after application

SMILES	GR80 VIOSS [g ai/ha]
COc1c(N)nc(-c2ccc(I)c(F)c2F)nc1C(=O)O [Compound 89]	19
COC(=O)c1nc(-c2ccc(I)c(F)c2F)c(F)c(N)c1Cl [Compound 99]	19
